Data on 109 molecules can be found in a melting point compilation (Tetko et al.).

What is called melting point is the temperature of the solid-liquid transition. In the case of `O=C(O)/C=C/c1c[nH]c2ccccc12`, the melting point was in the range of 184 to 187 °C. With `CCc1cccc(Cl)c1` the figure was -55 °C. With `Cn1c(=O)c(C2=NNC(=O)C2=NNc2cccnc2)c(O)c2ccccc21` the figure was 230 °C. Then `Cc1cc(C(=O)O)c(-c2ccccc2)o1`, with 145 to 147 °C; and `CC1(C)CCc2cc(S(=O)(=O)Cl)ccc2O1`, with 92 to 94 °C; and `NC(=O)c1c(N)cccc1F`, with 115 to 118 °C.

Consider `CC12CC3(C)CC(C)(C1)CC(C(=O)O)(C2)C3`, for which the melting point fell in the range of 149 to 151 °C. With `CCCc1ccc(NC(C)=O)cc1O` the figure was 178 to 179 °C. Take `COc1cc(OC)c(OC)cc1/C=C/C(=O)O`: the melting point lay in the range of 164 to 167 °C. With `CCOP(=S)(OCC)SC(CCl)N1C(=O)c2ccccc2C1=O` (centres undefined) the figure was 68 °C; with `Nc1ccccc1-n1cccn1`, 44 to 46 °C. Consider `CC(=O)OC1(C(C)=O)CCC2C3CCC4=CC(=O)CCC4(C)C3(F)C(O)CC21C` (centres undefined), for which the melting point was determined as 268 °C. With `CC(C)(S)C(=O)O` the figure was 47 °C; with `Nc1nc(N)nc(Cl)n1`, 320 °C; with `O=C(O)c1ccccc1C(=O)Nc1ccc(S(=O)(=O)N=c2[nH]ccs2)cc1`, 273 °C.

In the case of `N#CC12CC3CC(CC(C3)C1)C2`, the melting point stood at 195 °C. Molecule `Nc1cc(Cl)c([N+](=O)[O-])cc1N` gave a melting point of 189 to 193 °C.

The molecule `COCC(C)OC(C)=O` (centres undefined) showed a melting point of -87 °C. With `CC1=NN(c2ccccc2)C(=O)/C1=C\c1ccccc1O` the figure was 153 to 154 °C. With `O=C(Br)C(=O)Br` the figure was -19 °C; with `Cc1cc(C)oc(=O)c1`, 51.5 °C; with `CCCCCCCCCCCC(C)C`, -25 °C.

In turn, `CC1(C)OC(=O)C(=Cc2ccc([N+](=O)[O-])cc2)C(=O)O1` had a melting point of 301 °C. For the molecule `CCCCCCCCCCCC(=O)CC`, the melting point amounted to 34 °C. Then `Nc1cc(C(=O)O)ccc1C(=O)O`, with 324 °C; and `CC(=O)c1[nH]c2ccccc2c1C`, with 146 to 148 °C; and `COC(=O)c1ccc(OC)nc1`, with 51 °C.

In turn, `CCOC(=O)c1c(-c2ccccc2)csc1NC(=O)c1ccccc1Cl` displayed a melting point of 131 to 132 °C. With `COC(=O)c1ccc(C)c(C)c1` the figure was 36 to 38 °C; with `O=C(/C=C/c1ccccc1)Oc1ccc(/C=C/C(=O)c2ccccc2)cc1`, 158 °C.

As for `Clc1cccc(Cl)c1N=C1NCCN1`, the melting point amounted to 130 °C.

The molecule `N#CC(C#N)=C1Sc2nc3ccccc3nc2S1` returned a melting point of 221 °C.

In the case of `Cc1ccc(OCC(=O)O)cc1C`, the melting point came to 163 °C. With `CCOC(=O)c1c(Nc2ccc(OC)cc2)sc2c(-c3ccccc3)c3c(N)n[nH]c3nc12` the figure was 248 to 252 °C; with `COc1cc(OC(C)=O)c2c(=O)c(O[C@@H]3O[C@H](COC(C)=O)[C@H](OC(C)=O)[C@H](OC(C)=O)[C@@H]3O[C@@H]3O[C@H](C)[C@H](OC(C)=O)[C@H](OC(C)=O)[C@@H]3OC(C)=O)c(-c3ccc(OC(C)=O)cc3)oc2c1`, 118 to 120 °C.

Molecule `CNP(=O)(OC)Oc1ccc(C(C)(C)C)cc1Cl` (centres undefined) displayed a melting point of 60 °C. With `CC(=O)OC(OC(C)=O)c1ccc2c(c1[N+](=O)[O-])C(=O)c1c(Cl)c(Cl)c(Cl)c(Cl)c1C2=O` the figure was 250 °C; with `CCC(=Cc1ccccc1)[N+](=O)[O-]`, 90.5 °C. Molecule `CCOC(=O)c1[nH]c2cc3[nH]c(C(=O)OCC)c(OC(C)=O)c3cc2c1OC(C)=O` gave a melting point of 178 °C.

As for `CC#CC1(O)CCC2C3CC(C)C4=CC(=O)CCC4(C)C3CCC21C` (centres undefined), the melting point was 102 °C. `COc1ccc2c(OC)c3ccoc3nc2c1OC` displayed a melting point of 177 °C.

Consider `Nc1cc(C(F)(F)F)cc(Cl)c1N`, for which the melting point fell in the range of 42 to 43 °C. Then `COc1ccc(C(C=C(SC)SC)=C(C#N)C#N)cc1`, with 149 to 152 °C; and `O=Cc1c(-c2ccccc2)nc2n1CCS2`, with 127 to 128 °C. Then `CC(C)(C(=O)N1C(=O)C=CC1(C)C)C(=O)N1C(=O)C=CC1(C)C`, with 128 °C; and `Nc1nn2c(C(F)(F)F)cc(=O)[nH]c2c1/N=N/c1ccccc1`, with 283 °C.

Take `CC12CCCC1C1CCC(CCC(=O)O)C(C)(CCC(=O)O)C1CC2` (centres undefined): the melting point was determined as 232 °C. With `CC(=O)c1cc[nH]c1` the figure was 112 to 114 °C. With `CC(=O)Nc1ccc(OC(F)(F)F)cc1` the figure was 115 to 117 °C; with `O=S(=O)(O)c1cccnc1`, 300 °C. Then `CCCOC(=O)C(=O)OCCC`, with -44.3 °C. `O=C(O)C(CCBr)(c1ccccc1)c1ccccc1` showed a melting point of 135 to 137 °C. Then `NNC(=O)CSc1ccccc1[N+](=O)[O-]`, with 161 to 171 °C; and `OCCC1CCNCC1`, with 132 °C; and `CC1(C)CCCC(O)C1` (centres undefined), with 11.5 °C. Then `CCCCCc1ccc(-c2nnc(S)[nH]2)cc1`, with 190 to 193 °C; and `Ic1ccc2c(c1)Oc1ccccc1O2`, with 95 °C. With `O=C(Nc1ccccc1)OC1CCCCC(OC(=O)Nc2ccccc2)C1` (centres undefined) the figure was 170 °C. In the case of `Clc1ccc(C(c2ccccc2)N2CCNCC2)cc1` (centres undefined), the melting point was in the range of 65 to 75 °C. Consider `CC1CCC(C(C)C)C(OC(=O)c2ccc(C(=O)OC3CC(C)CCC3C(C)C)cc2)C1` (centres undefined), for which the melting point stood at 75 °C. With `COc1ccc2c3c(n(C)c2c1)CCCC3` the figure was 96 °C; with `Cc1nc(/C(C#N)=N/Nc2ccccc2[N+](=O)[O-])sc1/N=N/c1ccccc1`, 210 °C. With `CCCCCCCCCCCCC1=C(OC(C)=O)C(=O)c2ccccc2C1=O` the figure was 59.6 °C; with `c1csc(NC2=NCCN2)n1`, 240 to 242 °C. Then `Cc1cc(-c2ccccc2)n(N)c(=O)c1C#N`, with 189 °C. Molecule `S=c1[nH]c2ccc(Cl)cc2o1` gave a melting point of 229 to 232 °C. Then `NC(=O)c1ccc2c(c1)OCO2`, with 167 to 169 °C. With `N#CC1(N=NC2(C#N)CCCCC2)CCCCC1` the figure was 116 °C. Then `[O-][P+](c1ccccc1)(c1ccccc1)C1Sc2ccccc2S1`, with 181 °C; and `c1ccc(N(c2ccccc2)c2ccccc2)cc1`, with 127 °C; and `CC(=O)O[Si](OC(C)=O)(OC(C)=O)OC(C)=O`, with 110 °C.

`O=S(=O)(Cl)Cc1cccc(Br)c1`: the melting point lay in the range of 88 to 89 °C.

The molecule `c1csc(P(c2cccs2)c2cccs2)c1` gave a melting point of 29 to 30 °C. Then `COC(=O)C1=C(C(=O)OC)C2(CCl)c3ccccc3C1c1ccccc12`, with 169 °C; and `Nc1ccc(-c2ccc(N)c(N)c2)cc1N`, with 176 °C.

The molecule `COc1cc(O)c2c(c1)OC(c1ccc(O)cc1)CC2=O` (centres undefined) had a melting point of 152 °C. With `Oc1noc2nc3ccccc3nc12` the figure was 320 to 325 °C; with `c1cc(N2CCNCC2)ccn1`, 142 to 144 °C; with `ON=C(NN=C(Cl)C(F)(F)F)C(F)(F)F`, 119 °C. Then `c1ccc(C2Cc3ccccc3N2)cc1` (centres undefined), with 49 °C; and `O=C(CCc1ccccc1)CCc1ccccc1`, with 13.5 °C. Then `O=C(O)C1CCCCN1` (centres undefined), with 277 °C; and `C=CCC(C(=O)NC(N)=O)C(C)C` (centres undefined), with 194 °C; and `Nc1nnc(-c2ccc([N+](=O)[O-])cc2)s1`, with 202 to 204 °C. Take `CCCCCCCCCCCCCCCCCC(=O)Nc1ccc(O)cc1`: the melting point is 134 °C. With `CCOC(=O)C(O)C(O)C(=O)OCC` (centres undefined) the figure was 17 °C; with `CC(C)(C)[Si](C)(C)Cl`, 88 °C.

With `Cc1c(Cl)c(Cl)cc(Cl)c1Cl`, the melting point was 93.5 °C. Then `Sc1nc(-c2ccccc2)cs1`, with 174 °C. Regarding `CC(C)CCC[C@@H](C)[C@H]1CC[C@H]2[C@@H]3CC[C@H]4CC(=O)CC[C@]4(C)[C@H]3CC[C@]12C`, the melting point lay in the range of 128 to 133 °C.

In turn, `CCOC(=O)Cc1cc(C(=NNc2ccccc2)C(=O)OCC)c([N+](=O)[O-])cc1[N+](=O)[O-]` showed a melting point of 154 to 155 °C.

Molecule `OCc1cc(C(O)CNCCCCCCOCCCCc2ccccc2)ccc1O` (centres undefined) registered a melting point of 75.8 °C. `OCC#CC#CCO` registered a melting point of 112 °C. Then `CC1(C)SC2C(NC(=O)C(N)c3ccccc3)C(=O)N2C1C(=O)O` (centres undefined), with 208 °C.

In turn, `C=CN1C(=O)c2ccccc2C1=O` showed a melting point of 86 °C.

Molecule `CCCC(C)(C)C(=O)Nc1ccc(Cl)cc1` showed a melting point of 87.5 °C. With `COC(=O)CCc1ccc2c(c1)NC(=O)CC2` the figure was 143 °C; with `O=C=Nc1ccc(OCc2ccccc2)cc1`, 61 to 63 °C. Then `CCOC(=O)c1cc(=O)c2cc(I)ccc2o1`, with 148 to 150 °C; and `Fc1c(CBr)cccc1C(F)(F)F`, with 48 °C. With `CCC1CC(OP(=O)(O)O)CC(C)(C)N1O` (centres undefined) the figure was 270 °C; with `Nc1ccc(C(F)(F)F)cc1N`, 56 to 58 °C. Consider `COC(=O)c1cc([N+](=O)[O-])ccc1Br`, for which the melting point was 81 °C.

In turn, `NC(Cc1cccc2ccccc12)=NO` returned a melting point of 127 to 129 °C.

Turning to `CCOC(=O)c1ccc(F)cc1F`, the melting point lay within 65 to 67 °C. With `CCS(=O)(=O)CCO` the figure was 46 °C; with `Cc1cc(C(=O)O)c(C)n1-c1ccc(Cl)cc1`, 230 °C; with `Cc1ccc(S(=O)(=O)CC(=O)O)cc1`, 118 °C. Then `CN(C)c1ccc([N+](=O)[O-])c(N)c1`, with 134 to 139 °C.
